According to the NIST ThermoML archive (doi:10.1016/j.tca.2004.11.034):

Assays:
[1] = 101.33 kPa, Liquid; for speed of sound: Anton Paar DSA 48; for mass density: Vibrating tube method
[2] = xn = mol fraction of the nth substance listed; details: 101.33 kPa, Liquid; for speed of sound: Anton Paar DSA 48; for mass density: Vibrating tube method
[3] = excess molar enthalpy (molar enthalpy of mixing); xn = mol fraction of the nth substance listed; details: 298.15 K, 101.33 kPa, Liquid, Flow calorimetry

CC(C)CCl [1-chloro-2-methylpropane]
[1]
Details	mass density [kg/m3]	speed of sound [m/s]
298.15 K	870.89	1079.2
313.15 K	853.56	–
333.15 K	–	1016.3

CC(C)CCl [1-chloro-2-methylpropane] + CC1CCCO1
[2]
Details	mass density, 298.15 K [kg/m3]	mass density, 313.15 K [kg/m3]	speed of sound, 298.15 K [m/s]	speed of sound, 313.15 K [m/s]
x2 = 0.0515	870.05	–	1085.4	–
x2 = 0.0553	–	852.78	–	1023
x2 = 0.1006	869.23	–	1091.3	–
x2 = 0.1014	–	852.08	–	1028.6
x2 = 0.1992	–	850.48	–	1040.5
x2 = 0.2026	867.39	–	1103.8	–
x2 = 0.3	–	848.74	–	1052.7
x2 = 0.3059	865.41	–	1116.6	–
x2 = 0.4062	863.41	–	1129.1	–
x2 = 0.4072	–	846.78	–	1065.7
x2 = 0.5015	–	844.98	–	1077
x2 = 0.505	861.34	–	1141.4	–
x2 = 0.6022	859.23	–	1153.5	–
x2 = 0.605	–	842.9	–	1089.3
x2 = 0.7022	–	840.83	–	1100.8
x2 = 0.7035	856.92	–	1166.1	–
x2 = 0.8	–	838.61	–	1112.4
x2 = 0.8012	854.57	–	1178.2	–
x2 = 0.8967	–	836.35	–	1123.8
x2 = 0.9099	851.75	–	1191.6	–
x2 = 0.9491	–	835.09	–	1130
x2 = 0.9492	850.66	–	1196.4	–

[3]
Details	excess molar enthalpy [kcal/mol]
x2 = 0.06	-0.00789
x2 = 0.109	-0.016
x2 = 0.21	-0.0315
x2 = 0.309	-0.0416
x2 = 0.411	-0.0504
x2 = 0.511	-0.0535
x2 = 0.609	-0.0526
x2 = 0.707	-0.0468
x2 = 0.806	-0.0361
x2 = 0.904	-0.0201
x2 = 0.954	-0.0103

CCCCCl [1-chlorobutane]
[1]
Details	mass density [kg/m3]	speed of sound [m/s]
298.15 K	880.69	1118.8
313.15 K	863.86	–
333.15 K	–	1057.1

CC(C)(C)Cl [2-chloro-2-methylpropane]
[1]
Details	mass density [kg/m3]	speed of sound [m/s]
298.15 K	835.67	983.1
313.15 K	818.43	–
333.15 K	–	920.3

CC(C)(C)Cl [2-chloro-2-methylpropane] + CC1CCCO1
[2]
Details	mass density, 298.15 K [kg/m3]	mass density, 313.15 K [kg/m3]	speed of sound, 298.15 K [m/s]	speed of sound, 313.15 K [m/s]
x2 = 0.0505	837.22	–	993.8	–
x2 = 0.0517	–	819.88	–	932.6
x2 = 0.0895	–	820.9	–	941.2
x2 = 0.108	838.65	–	1006.1	–
x2 = 0.195	–	823.23	–	964
x2 = 0.2065	840.58	–	1027.5	–
x2 = 0.3015	–	825.36	–	986.5
x2 = 0.3136	842.3	–	1050.9	–
x2 = 0.3969	–	827.1	–	1006.8
x2 = 0.4125	843.81	–	1072.6	–
x2 = 0.4986	–	828.77	–	1028.7
x2 = 0.5156	845.26	–	1095.2	–
x2 = 0.605	–	830.31	–	1051.5
x2 = 0.6124	846.46	–	1116.5	–
x2 = 0.6978	–	831.4	–	1071.1
x2 = 0.7107	847.59	–	1138.2	–
x2 = 0.7998	–	832.45	–	1092
x2 = 0.8031	848.42	–	1158.7	–
x2 = 0.8947	–	833.18	–	1111.7
x2 = 0.9022	848.98	–	1180.6	–
x2 = 0.9476	849.12	–	1190.7	–
x2 = 0.949	–	833.54	–	1123.7

[3]
Details	excess molar enthalpy [kcal/mol]
x2 = 0.057	-0.00335
x2 = 0.104	-0.00717
x2 = 0.201	-0.0146
x2 = 0.298	-0.0198
x2 = 0.398	-0.0241
x2 = 0.497	-0.0261
x2 = 0.597	-0.0253
x2 = 0.696	-0.0227
x2 = 0.799	-0.0184
x2 = 0.901	-0.0105
x2 = 0.954	-0.0055

CCC(C)Cl (stereo not given) [2-chlorobutane]
[1]
Details	mass density [kg/m3]	speed of sound [m/s]
298.15 K	867.37	1066.8
313.15 K	850.16	–
333.15 K	–	1006.9

CCC(C)Cl (stereo not given) [2-chlorobutane] + CC1CCCO1
[2]
Details	mass density, 298.15 K [kg/m3]	mass density, 313.15 K [kg/m3]	speed of sound, 298.15 K [m/s]	speed of sound, 313.15 K [m/s]
x2 = 0.049	866.71	–	1073.2	–
x2 = 0.0565	–	849.52	–	1013.7
x2 = 0.1006	866.01	–	1080.1	–
x2 = 0.101	–	848.97	–	1019.3
x2 = 0.201	–	847.69	–	1031.9
x2 = 0.2041	864.52	–	1093.8	–
x2 = 0.3034	862.99	–	1107.1	–
x2 = 0.3045	–	846.28	–	1045.1
x2 = 0.4039	–	844.81	–	1057.9
x2 = 0.4055	861.31	–	1120.8	–
x2 = 0.5026	859.61	–	1134	–
x2 = 0.5074	–	843.19	–	1071.3
x2 = 0.6005	857.81	–	1147.3	–
x2 = 0.6044	–	841.58	–	1083.9
x2 = 0.6989	855.91	–	1160.9	–
x2 = 0.7042	–	839.79	–	1097
x2 = 0.8022	853.81	–	1175.2	–
x2 = 0.8034	–	837.9	–	1110
x2 = 0.8988	–	835.97	–	1122.6
x2 = 0.8991	851.69	–	1188.7	–
x2 = 0.9456	–	835.03	–	1128.8
x2 = 0.9472	850.55	–	1195.3	–

[3]
Details	excess molar enthalpy [kcal/mol]
x2 = 0.057	-0.00454
x2 = 0.104	-0.01
x2 = 0.201	-0.0198
x2 = 0.298	-0.0277
x2 = 0.398	-0.033
x2 = 0.497	-0.0356
x2 = 0.597	-0.0359
x2 = 0.696	-0.0323
x2 = 0.799	-0.0251
x2 = 0.901	-0.0141
x2 = 0.954	-0.00717

CC1CCCO1 (stereo not given) [2-methyltetrahydrofuran]
[1]
Details	mass density [kg/m3]	speed of sound [m/s]
298.15 K	849.2	1202.6
313.15 K	833.88	–
333.15 K	–	1136.2

CC1CCCO1 (stereo not given) [2-methyltetrahydrofuran] + CCCCCl
[2]
Details	mass density, 298.15 K [kg/m3]	mass density, 313.15 K [kg/m3]	speed of sound, 298.15 K [m/s]	speed of sound, 313.15 K [m/s]
x1 = 0.0507	–	862.5	–	1061
x1 = 0.0535	879.23	–	1123.2	–
x1 = 0.0972	878.04	–	1126.8	–
x1 = 0.1022	–	861.16	–	1065
x1 = 0.1958	875.19	–	1134.9	–
x1 = 0.2014	–	858.46	–	1072.6
x1 = 0.2975	872.17	–	1143.3	–
x1 = 0.3019	–	855.6	–	1080.3
x1 = 0.4006	869.04	–	1151.9	–
x1 = 0.4047	–	852.6	–	1088.5
x1 = 0.5017	–	849.72	–	1096.2
x1 = 0.5031	865.88	–	1160.5	–
x1 = 0.6017	862.77	–	1168.8	–
x1 = 0.6026	–	846.65	–	1104.3
x1 = 0.6986	859.63	–	1177	–
x1 = 0.7017	–	843.55	–	1112.3
x1 = 0.7994	–	840.43	–	1120.2
x1 = 0.8009	856.27	–	1185.6	–
x1 = 0.9005	852.87	–	1194.1	–
x1 = 0.9009	–	837.13	–	1128.3
x1 = 0.9487	–	835.54	–	1132.2
x1 = 0.9489	851.15	–	1198.2	–

[3]
Details	excess molar enthalpy [kcal/mol]
x1 = 0.057	-0.00669
x1 = 0.104	-0.0139
x1 = 0.201	-0.0277
x1 = 0.298	-0.038
x1 = 0.398	-0.0466
x1 = 0.497	-0.0502
x1 = 0.597	-0.0495
x1 = 0.696	-0.0449
x1 = 0.799	-0.0351
x1 = 0.901	-0.0203
x1 = 0.954	-0.0103
